According to publication PMC5038265 (Antimicrobial Agents and Chemotherapy, 2016):
Values after ≈ are worked out from the molar mass of the structure shown. Like-named read-outs stand apart in the source and are kept apart here.

Key:
M. tuberculosis LeuRS = M. tuberculosis LeuRS (Mycobacterium tuberculosis, UniProt P9WFV1); experiment: biochemical; set-up: species or system M. tuberculosis H37Rv
Vero cells = experiment: In vitro cytotoxicity assay (MTT); type: cell-based, African green monkey; conditions: Chlorocebus sabaeus, 72 h
Description: Vero epithelial cells (from African green monkey; ATCC CCL-81) were cultured in Dulbecco's modified Eagle's medium (DMEM) supplemented with 10% fetal bovine serum (FBS) and maintained in a humidified incubator (37°C in 5% CO2). Cells were dislodged with a cell scraper, collected by centrifugation, resuspended in fresh medium at ∼10^6 cells/ml, dispensed into 96-well microtiter plates ([…]), and incubated for 18 h at 37°C. Twofold serial dilutions of test compounds in DMEM with FBS were subsequently added, and cells were incubated for another 72 h. In triplicate studies, the cytopathic effects of compounds were evaluated colorimetrically by using the 3-(4,5-dimethyl-2-thiazolyl)-2,5-diphenyl-2H-tetrazolium bromide (MTT) cell proliferation assay (ATCC). IC50 data were obtained from dose-response curves plotted by using GraphPad Prism 5.

M. tuberculosis H37Rv [1] = experiment: MIC for M. tuberculosis H37Rv (resazurin/alamarBlue); type: cell-based, Mycobacterium tuberculosis; conditions: for MIC: Mycobacterium tuberculosis, H37RV, read-out: MIC M.tb H37Rv
in vivo = conditions: for AUC(0-inf) / Cmax / MRT / Vd / clearance / half-life / AUC(0-t) / Tmax / bioavailability: in vivo; for α-t1/2 % AUC / β-t1/2 % AUC: i.v.
Description: Mouse pharmacokinetic studies were conducted by using female CD-1 mice for compounds 1, 11, and 12, while BALB/c mice were used for compound 13. Mouse body weights were 19 to 28 g, and on the morning of dosing, mice were split randomly into 3 dosing groups to receive the test article by either intravenous (i.v.) tail vein injection or oral (p.o.) gavage. After dosing, blood samples were collected via cardiac puncture at specific time points (n = 3 mice/time point) through 24 h (K2EDTA as an anticoagulant) and processed for plasma. Antibiotic concentrations in the plasma samples were analyzed by liquid chromatography-tandem mass spectrometry (LC-MS/MS). The LC-MS/MS analysis was conducted by using analyte/internal standard peak area methods. The internal standard was AN3365 ([21]), and the instrument used was an API4000 QTRAP instrument (AB Sciex). The limit of quantitation (LOQ) was 1 or 2 ng/ml. Pharmacokinetic analyses of the mean plasma concentration-time profiles were performed by using WinNonlin Pro version 5.2. A compartmental model was used for the data for i.v. dosing, and a noncompartmental model was used for the data for p.o. dosing. […] Compounds 1 and 13 were formulated in saline (0.9% [wt/vol] NaCl) at 7.5 mg/ml, and the pH was adjusted to >5 by the addition of NaOH. Compound 11 was formulated to 6.5 mg/ml in water-dimethylacetamide-ethanol (EtOH) (76:19:5), and the pH was adjusted to >5 by the addition of NaOH. Compound 12 was formulated to 7.5 mg/ml in PEG 300-propylene glycol (PG)-water (55:25:20), and the pH was adjusted to >5 by the addition of NaOH.

[2] = target: M. tuberculosis LeuRS editing domain (Mycobacterium tuberculosis, UniProt P9WFV1); experiment: biochemical; type: binding
in vitro = in vitro ADME; conditions: mouse plasma, 1 and 10 µg/ml, ultrafiltration; read-out: Mouse PPB (converted)
Description: Compounds were added to 1.5-ml aliquots of mouse plasma at concentrations of 1 and 10 µg/ml and then incubated in a shaking water bath at 37°C for 15 min. Both samples were treated similarly, and a 0.5-ml aliquot was removed from each tube and added to the filter reservoir of Microcon centrifugal filter devices (Ultracel YM-30 with a molecular mass cutoff of 30 kDa). The devices were centrifuged at 1,000 × g for 10 min, and 100 μl of the filtrate was transferred to a 96-well plate and diluted 5-fold. Ten-microliter volumes of the samples were injected and analyzed with the LC-MS/MS system. All samples were analyzed in duplicate. Quantitation was based on the peak area ratio of the analyte over the internal standard, and all integrations were performed with peak areas by using Analyst version 1.4.1 (Applied Biosystems, Foster City, CA, USA). Plasma protein binding was calculated based on the following equation: Plasma Protein Binding (%)=(PeakAreaPlasma UltrafilrateSpiked−PeakAreaPlasmaFiltrate)/PeakAreaPlasma UltrafiltrateSpiked×100

HepG2 cells = experiment: HepG2 cell viability (Janus green staining); type: cell-based; conditions: Homo sapiens, 168 h, HepG2, 7 days, read-out: Mean EC50 ± SD Cell viability
Description: (§1) The human liver carcinoma-derived HepG2 cell line was obtained from the ATCC (ATCC HB-8065). HepG2 cells were grown in Dulbecco's modified Eagle's medium containing 10% fetal calf serum, 1 mM sodium pyruvate, 0.1 mM essential amino acids, and 50 U/ml penicillin-streptomycin at 37°C with 5% CO2. HepG2 cells were seeded into 96-well plates at 3,000 cells/200 μl/well in cell culture medium. Cells were then grown in the presence of the compounds at 37°C in 10% CO2 for 7 days in at least duplicate concentrations, with the medium and compounds being replaced on the fourth day. After 7 days, the levels of SDHA (subunit A of the succinate dehydrogenase complex) and COX1 (cytochrome c oxidase) were determined by using the MitoSciences In-Cell enzyme-linked immunosorbent assay (ELISA) kit. Janus green staining was used to determined cell viability after 7 days (In-Cell ELISA kit, catalog number MS643).

SDHA in HepG2 cells = experiment: Mitochondrial protein synthesis assay, SDHA level; type: cell-based; conditions: Homo sapiens, 168 h; HepG2, 7 days; read-out: Mean EC50 ± SD SDHA
Description: as §1

COX1 in HepG2 cells = experiment: Mitochondrial protein synthesis assay, COX1 level; type: cell-based; conditions: Homo sapiens, 168 h; HepG2, 7 days; read-out: Mean EC50 ± SD COX1
Description: as §1

M. tuberculosis H37Rv [3] = type: in vivo, C57BL/6J mice; conditions: mouse, in vivo
[4] = female, CD-1, mouse, iv, 15 mg/kg
[5] = mouse, po, 30 mg/kg, Terminal t1/2, mouse
[6] = mouse, iv, 30 mg/kg, α-t1/2, mouse
[7] = mouse, iv, 30 mg/kg, β-t1/2, mouse

Chain of M. tuberculosis LeuRS editing domain (P9WFV1 309-513): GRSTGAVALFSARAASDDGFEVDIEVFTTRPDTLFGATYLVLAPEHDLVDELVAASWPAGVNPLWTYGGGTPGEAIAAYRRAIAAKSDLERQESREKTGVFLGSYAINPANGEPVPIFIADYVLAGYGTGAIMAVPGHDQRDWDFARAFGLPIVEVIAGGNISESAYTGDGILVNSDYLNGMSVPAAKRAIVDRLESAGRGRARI
Chain of M. tuberculosis LeuRS (P9WFV1 whole entry): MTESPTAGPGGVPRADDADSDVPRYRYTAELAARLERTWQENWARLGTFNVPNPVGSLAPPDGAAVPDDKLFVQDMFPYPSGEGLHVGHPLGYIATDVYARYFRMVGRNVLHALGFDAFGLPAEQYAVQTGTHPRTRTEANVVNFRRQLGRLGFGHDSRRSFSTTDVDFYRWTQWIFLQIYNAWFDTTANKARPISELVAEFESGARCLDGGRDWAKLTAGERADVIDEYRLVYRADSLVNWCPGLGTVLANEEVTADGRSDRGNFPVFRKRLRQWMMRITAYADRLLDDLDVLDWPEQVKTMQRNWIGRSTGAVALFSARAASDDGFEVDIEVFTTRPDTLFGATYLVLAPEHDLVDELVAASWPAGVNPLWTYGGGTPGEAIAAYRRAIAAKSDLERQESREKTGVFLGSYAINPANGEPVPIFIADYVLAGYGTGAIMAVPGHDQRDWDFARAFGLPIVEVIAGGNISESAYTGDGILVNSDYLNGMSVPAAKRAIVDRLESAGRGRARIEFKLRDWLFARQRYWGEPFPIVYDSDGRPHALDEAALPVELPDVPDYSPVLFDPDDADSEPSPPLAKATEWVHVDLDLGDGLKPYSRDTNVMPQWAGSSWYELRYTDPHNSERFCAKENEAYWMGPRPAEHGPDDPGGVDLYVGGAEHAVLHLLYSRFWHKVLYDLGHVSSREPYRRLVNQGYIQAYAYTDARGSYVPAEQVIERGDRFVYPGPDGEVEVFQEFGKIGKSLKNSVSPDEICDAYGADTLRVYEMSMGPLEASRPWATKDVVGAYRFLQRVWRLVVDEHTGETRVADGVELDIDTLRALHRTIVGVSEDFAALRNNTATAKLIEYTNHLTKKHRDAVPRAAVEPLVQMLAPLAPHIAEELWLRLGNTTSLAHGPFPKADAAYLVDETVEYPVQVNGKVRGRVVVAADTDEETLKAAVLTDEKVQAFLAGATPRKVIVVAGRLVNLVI

SMILES | IC50 (M. tuberculosis LeuRS; read-out: IC50 M.tb LeuRS) [µM] | EC50 (Vero cells) [µM] | MIC (M. tuberculosis H37Rv [1]) [µg/mL] | AUC(0-t) (in vivo; mouse, po, 30 mg/kg) [ng·h/mL] | Cmax (in vivo; mouse, po, 30 mg/kg) [ng/mL] | Tmax (in vivo; mouse, po, 30 mg/kg) [h] | bioavailability (in vivo; mouse, po, 30 mg/kg) [%] | half-life (in vivo; [5]) [h] | fraction unbound (in vitro) | EC50 (HepG2 cells) [µM] | EC50 (SDHA in HepG2 cells) [µM] | EC50 (COX1 in HepG2 cells) [µM] | also measured
CCOc1c(F)ccc2c1B(O)OC2CN (stereo not drawn) [Compound 7] | 0.56 | > 50 | > 1.1 | – | – | – | – | – | – | – | – | – | MIC M.tb H37Rv (M. tuberculosis H37Rv [1]): ≥ 1.1 µg/mL
CCOc1ccc(C)c2c1B(O)OC2CN (stereo not drawn) [Compound 8] | 0.2 | > 50 | 0.04 (≈ 0.181 µM) | – | – | – | – | – | – | – | – | – | –
CCOc1ccc(CC)c2c1B(O)OC2CN (stereo not drawn) [Compound 9] | 0.31 | > 50 | 0.29 (≈ 1.23 µM) | – | – | – | – | – | – | – | – | – | –
CCOc1ccc(-c2ccccc2)c2c1B(O)OC2CN.Cl (stereo not drawn) [Compound 10, 3-(Aminomethyl)-7-ethoxy-4-phenylbenzo[c][1,2]oxaborol-1(3H)-ol hydrochloride] | 28 | > 50 | 17 | – | – | – | – | – | – | – | – | – | –
CCOc1ccc(Br)c2c1B(O)OC2CN (stereo not drawn) [Compound 11] | – | > 50 | 0.05 (≈ 0.175 µM) | 35900 | 7200 | 1 | 39 | 2.7 | 0.5 | – | – | – | IC50 (M. tuberculosis LeuRS): 0.11 µM; improvement of MIC values over compound 1 (M. tuberculosis H37Rv [1]; M. tuberculosis H37Rv): more than 5 fold; AUC(0-inf) (in vivo; [4]): 45800 ng·h/mL; Cmax (in vivo; [4]): 18000 ng/mL; MRT (in vivo; [4]): 3 h; Vd (in vivo; [4]): 0.968 L/kg; clearance (in vivo; [4]): 5.47 mL/min/kg; half-life (in vivo; female, CD-1, mouse, iv, 15 mg/kg, α-t1/2, mouse): 0.09 h; half-life (in vivo; female, CD-1, mouse, iv, 15 mg/kg, β-t1/2, mouse): 2.08 h; α-t1/2 % AUC (in vivo; mouse, 15 mg/kg): 2 % AUC; β-t1/2 % AUC (in vivo; mouse, 15 mg/kg): 98 % AUC; Kd [2]: 0.04 µM; No. of sites [2]: 1.02; ΔGap [2]: -10.0 kcal/mol; ΔHap [2]: -5.5 kcal/mol; −TΔSap [2]: -4.6 kcal/mol
CCOc1ccc(F)c2c1B(O)O[C@@H]2CN [Compound 12] | 0.08 | – | 0.05 (≈ 0.222 µM) | 23800 | 5000 | 1 | 89 | 2.7 | 0.84 | 23 ± 1.4 | 39.5 ± 9.2 | > 150 | α-t1/2 % AUC (in vivo; mouse, 30 mg/kg): 7 % AUC; β-t1/2 % AUC (in vivo; mouse, 30 mg/kg): 93 % AUC; AUC(0-inf) (in vivo; mouse, iv, 30 mg/kg): 26800 ng·h/mL; Cmax (in vivo; mouse, iv, 30 mg/kg): 13700 ng/mL; MRT (in vivo; mouse, iv, 30 mg/kg): 3.4 h; Vd (in vivo; mouse, iv, 30 mg/kg): 3.81 L/kg; clearance (in vivo; mouse, iv, 30 mg/kg): 18.6 mL/min/kg; half-life (in vivo; [6]): 0.11 h; half-life (in vivo; [7]): 2.53 h
CCOc1ccc(Cl)c2c1B(O)O[C@@H]2CN [Compound 13] | – | – | 0.02 (≈ 0.0828 µM) | 47500 | 6400 | 0.25 | 92 | 3.1 | 0.77 | 80 ± 5.7 | 20.5 ± 2.1 | > 150 | IC50 (M. tuberculosis LeuRS): 0.06 µM; α-t1/2 % AUC (in vivo; mouse, 30 mg/kg): 2 % AUC; β-t1/2 % AUC (in vivo; mouse, 30 mg/kg): 98 % AUC; AUC(0-inf) (in vivo; mouse, iv, 30 mg/kg): 51600 ng·h/mL; Cmax (in vivo; mouse, iv, 30 mg/kg): 13600 ng/mL; MRT (in vivo; mouse, iv, 30 mg/kg): 5.4 h; Vd (in vivo; mouse, iv, 30 mg/kg): 3.14 L/kg; clearance (in vivo; mouse, iv, 30 mg/kg): 9.7 mL/min/kg; half-life (in vivo; [6]): 0.1 h; half-life (in vivo; [7]): 3.83 h; Kd [2]: 0.075 µM; No. of sites [2]: 1.19; ΔGap [2]: -9.7 kcal/mol; ΔHap [2]: -4.2 kcal/mol; −TΔSap [2]: -5.5 kcal/mol
C[C@H]1c2cccc(O)c2C(=O)C2=C(O)[C@]3(O)C(=O)C(C(N)=O)=C(O)[C@@H](N(C)C)[C@@H]3[C@@H](O)[C@@H]21 [Doxycycline, doxycycline] | – | – | – | – | – | – | – | – | – | 118 ± 35.5 | 109 ± 29 | 23.7 ± 6.4 | –
CC[C@H]1OC(=O)[C@H](C)[C@@H](O[C@H]2C[C@@](C)(OC)[C@@H](O)[C@H](C)O2)[C@H](C)[C@@H](O[C@@H]2O[C@H](C)C[C@H](N(C)C)[C@H]2O)[C@](C)(O)C[C@@H](C)C(=O)[C@H](C)[C@@H](O)[C@]1(C)O [Erythromycin, erythromycin] | – | – | – | – | – | – | – | – | – | > 150 | > 150 | > 150 | –
CC(=O)NC[C@H]1CN(c2ccc(N3CCOCC3)c(F)c2)C(=O)O1 [Linezolid, linezolid] | – | – | – | – | – | – | – | – | – | > 150 | > 150 | 27.3 ± 10.8 | MIC values used in kill kinetics experiment (M. tuberculosis H37Rv [1]): 0.6 µg/mL (≈ 1.78 µM); reduction in CFU (M. tuberculosis H37Rv [3]): 2.6 log10
